Each structure is given as a SMILES string. Values after ≈ are worked out from the molar mass of the structure shown. Where two headings read alike, the source gives them in different places. Where only a bound is given, the exact number is not on record here.

In general, IC50 refers to the concentration at which inhibition is half-maximal. For orientation: Ki means a dissociation constant, usually derived from enzyme kinetics or from competition with a known ligand.

For data set [1], the system named is P. aeruginosa. The experiment in a line: Antibiotic synergy in the C. elegans LK model. Format: in vivo, Caenorhabditis elegans. Also on record: C. elegans antibiotic synergy, Mean Diff.: unit not given here. On the procedure: Assessment of antibiotic synergy in the C. elegans model was adapted from previously described protocols ([25]). Briefly, glp-4 C. elegans worms were incubated at 25°C with P. aeruginosa and the indicated amount of gallein or DMSO in LK medium as described above. After 24 h, antibiotics were added. After another 24 h, C. elegans survival was scored as described above.

The target of another data set is T1, P. aeruginosa PPK1 (Pseudomonas aeruginosa, UniProt P0DP44).
T1 construct: His tag (cleaved yes); made in house
Kind of data set: PPK1 polyP synthesis from ATP, toluidine blue detection. As to conditions: polyP synthesis from ATP; 275 nM enzyme. Format: biochemical. The method, then: Compounds were synthesized as outlined in Text S1. Compounds were dissolved in DMSO to make 10 mM stocks and added to a 200 μM final concentration for initial screening. The screen for PPK1 inhibitors was conducted by measuring polyP synthesis activity as described previously ([12]), with the exception of the polyP detection method (see Text S1). […] One-hundred-microliter reaction mixtures were incubated at 37°C for 30 min, after which time 50-μl aliquots were withdrawn and added to 1,000 μl of 6-mg/liter toluidine blue dissolved in 40 mM acetic acid to quench the reaction and quantify polyP ([27]). The A630/530 nm ratio was then recorded, and the values obtained were corrected by subtracting the corresponding blanks (all ingredients except enzyme). The amount of polyP synthesized was calculated using a standard curve (Fig. S1A). Any compounds showing 50% or greater reduction in activity relative to the DMSO control were subjected to further IC50 analysis.
(§1) All IC50 and kinetic assay mixtures contained equimolar amounts (275 nM) of PPK to ensure valid comparison between different enzymes. PolyP synthesis activity (for PPK1 and PPK2B) was assayed using the reaction buffer and conditions described above. ATP concentration was varied as indicated for kinetic experiments. Curves were fit using GraphPad Prism V9.

The target in another data set is T2, P. aeruginosa PPK2A (Pseudomonas aeruginosa, UniProt Q9I6Z1).
T2 construct: residues P9 to P289; MBP (N, cleaved yes); His tag (N, cleaved yes); made in house; host or cells: E. coli BL21(DE3)
The experiment in a line: PPK2A ADP phosphorylation by polyP (ATP synthesis), toluidine blue detection. Format: biochemical. The method, then: as §1
(§2) Nucleotide phosphorylation activity of PPK2 enzymes was assayed in buffer containing 50 mM Tris-HCl, pH 7.5, 10 mM (NH4)2SO4, 10 mM MgCl2, 5 mM polyP45 (Sigma; in terms of individual Pi monomers), and nucleotide (ADP or AMP) at 5 mM for IC50 reactions or as indicated for kinetic experiments. Enzyme was added to a final concentration of 275 nM in 100-μl reaction volumes. One-hundred-microliter reaction mixtures were incubated at 37°C for 30 min, and then 5-μl aliquots were withdrawn and added to 1,000 μl of 6-mg/liter toluidine blue dissolved in 40 mM acetic acid to quench the reaction and quantify the polyP that remained. The A630/530 nm ratio was then recorded, and the values obtained were corrected by subtracting the corresponding blanks (all ingredients except enzyme). The amount of polyP consumed was calculated by subtracting the amount present after reaction from that present in the initial reaction mix, as calculated via a standard curve. Each monomer of Pi consumed from polyP equates to one nucleoside phosphorylated. Curves were fit using GraphPad Prism V9.

The target in another data set is T3, P. aeruginosa PPK2B (Pseudomonas aeruginosa, UniProt Q9I154).
T3 construct: MBP (N, cleaved yes); His tag (N, cleaved yes); made in house; host or cells: E. coli BL21(DE3)
The experiment in a line: PPK2B polyP synthesis from ATP, toluidine blue detection. Format: biochemical. The method, then: Compounds were synthesized as outlined in Text S1. Compounds were dissolved in DMSO to make 10 mM stocks and added to a 200 μM final concentration for initial screening. The screen for PPK1 inhibitors was conducted by measuring polyP synthesis activity as described previously ([12]), with the exception of the polyP detection method (see Text S1). The reaction mix contained 50 mM HEPES-KOH, pH 7.5, 40 mM (NH4)2SO4, 4 mM MgSO4, 60 mM creatine phosphate, 0.0625 mg/ml creatine kinase (Sigma; from rabbit muscle), 5 mM ATP, and 275 nM PPK1 (added last). One-hundred-microliter reaction mixtures were incubated at 37°C for 30 min, after which time 50-μl aliquots were withdrawn and added to 1,000 μl of 6-mg/liter toluidine blue dissolved in 40 mM acetic acid to quench the reaction and quantify polyP ([27]). The A630/530 nm ratio was then recorded, and the values obtained were corrected by subtracting the corresponding blanks (all ingredients except enzyme). The amount of polyP synthesized was calculated using a standard curve (Fig. S1A). Any compounds showing 50% or greater reduction in activity relative to the DMSO control were subjected to further IC50 analysis.
as §1

The next data set addresses T4, P. aeruginosa PPK2C (Pseudomonas aeruginosa, UniProt Q9HYF1).
T4 construct: MBP (N, cleaved yes); His tag (N, cleaved yes); made in house; host or cells: E. coli BL21(DE3)
The experiment in a line: PPK2C AMP phosphorylation by polyP (ADP synthesis), toluidine blue detection. It is filed as biochemical. The method, then: as §1, §2

For the next data set, the system named is HEK293T cells. Kind of data set: HEK293T cytotoxicity assay, trypan blue. It is filed as cell-based, human. The note with it: 48 h incubation. The method, then: HEK293 cells were grown in Dulbecco’s modified Eagle’s medium supplemented with 10% fetal bovine serum at 5% CO2 and 37°C. Cells were grown until a confluent monolayer was formed in 12-well culture plates, at which point inhibitors or DMSO was added. After 48-h incubation, cells were detached with trypsin and percent viability was scored via a hemocytometer and trypan blue staining.

For a further data set, the system named is E. coli PPK1. Also on record: method as in earlier work. The note with it: ref 1 (supplement: Ahn K, Kornberg A. 1990); cited from earlier work.
Data set [2] concerns P. aeruginosa. Kind of data set: microbe, parasite or virus in culture. As to conditions: Pseudomonas aeruginosa. Format: cell-based, Pseudomonas aeruginosa.
Setting [3] is: ATP synthesis from ADP and polyP, 275 nM enzyme, read-out: IC50 PPK2A.
[4] abbreviates: Data Set S1, sheet Risen compounds, read-out: PA PPK2A IC50.
The mark [5] stands for this setting: polyP synthesis from ATP, 275 nM enzyme, read-out: IC50 PPK2B.
[6] abbreviates: ADP synthesis from AMP and polyP, 275 nM enzyme, read-out: IC50 PPK2C.
The mark [7] stands for this setting: Data Set S1, sheet Risen compounds, read-out: PA PPK2C IC50.

T3 sequence (Q9I154 whole entry): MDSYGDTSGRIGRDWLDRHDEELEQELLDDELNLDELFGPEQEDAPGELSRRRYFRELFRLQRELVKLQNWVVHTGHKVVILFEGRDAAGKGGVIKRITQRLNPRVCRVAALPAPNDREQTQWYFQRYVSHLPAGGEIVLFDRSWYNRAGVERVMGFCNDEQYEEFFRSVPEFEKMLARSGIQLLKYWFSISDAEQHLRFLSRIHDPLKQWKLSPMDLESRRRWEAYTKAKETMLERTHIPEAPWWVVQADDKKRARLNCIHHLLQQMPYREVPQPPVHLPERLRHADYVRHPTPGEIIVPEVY
T1 sequence (P0DP44 whole entry): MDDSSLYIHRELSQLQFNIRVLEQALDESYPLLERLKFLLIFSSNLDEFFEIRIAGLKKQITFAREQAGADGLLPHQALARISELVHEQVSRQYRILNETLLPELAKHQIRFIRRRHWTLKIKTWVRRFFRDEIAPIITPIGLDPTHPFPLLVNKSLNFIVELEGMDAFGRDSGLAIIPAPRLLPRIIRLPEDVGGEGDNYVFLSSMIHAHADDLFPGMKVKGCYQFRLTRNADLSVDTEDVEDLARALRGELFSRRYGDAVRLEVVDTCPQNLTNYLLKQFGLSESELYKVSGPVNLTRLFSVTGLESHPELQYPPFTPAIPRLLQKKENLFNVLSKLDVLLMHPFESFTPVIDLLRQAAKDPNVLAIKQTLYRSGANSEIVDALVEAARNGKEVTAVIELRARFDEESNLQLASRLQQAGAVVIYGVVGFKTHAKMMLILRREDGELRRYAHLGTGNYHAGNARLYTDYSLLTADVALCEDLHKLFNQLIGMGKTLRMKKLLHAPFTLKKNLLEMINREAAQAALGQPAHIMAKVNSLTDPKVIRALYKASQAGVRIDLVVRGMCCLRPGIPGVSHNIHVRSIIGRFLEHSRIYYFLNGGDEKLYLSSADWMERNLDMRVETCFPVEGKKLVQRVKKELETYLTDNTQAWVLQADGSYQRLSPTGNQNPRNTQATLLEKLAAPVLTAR
T4 sequence (Q9HYF1 whole entry): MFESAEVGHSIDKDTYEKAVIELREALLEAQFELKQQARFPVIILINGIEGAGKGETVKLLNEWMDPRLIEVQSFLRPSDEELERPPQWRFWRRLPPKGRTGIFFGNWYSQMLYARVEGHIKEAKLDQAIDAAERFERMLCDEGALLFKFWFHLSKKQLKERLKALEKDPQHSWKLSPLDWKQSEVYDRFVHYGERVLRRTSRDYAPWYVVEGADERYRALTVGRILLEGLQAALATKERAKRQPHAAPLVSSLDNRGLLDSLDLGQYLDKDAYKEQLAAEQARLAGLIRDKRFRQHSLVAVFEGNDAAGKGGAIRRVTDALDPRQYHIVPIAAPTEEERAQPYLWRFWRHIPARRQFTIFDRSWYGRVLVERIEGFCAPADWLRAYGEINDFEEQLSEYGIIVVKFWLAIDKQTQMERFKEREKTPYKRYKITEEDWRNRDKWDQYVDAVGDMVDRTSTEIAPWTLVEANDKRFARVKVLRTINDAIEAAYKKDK
T2 sequence (Q9I6Z1 68-348): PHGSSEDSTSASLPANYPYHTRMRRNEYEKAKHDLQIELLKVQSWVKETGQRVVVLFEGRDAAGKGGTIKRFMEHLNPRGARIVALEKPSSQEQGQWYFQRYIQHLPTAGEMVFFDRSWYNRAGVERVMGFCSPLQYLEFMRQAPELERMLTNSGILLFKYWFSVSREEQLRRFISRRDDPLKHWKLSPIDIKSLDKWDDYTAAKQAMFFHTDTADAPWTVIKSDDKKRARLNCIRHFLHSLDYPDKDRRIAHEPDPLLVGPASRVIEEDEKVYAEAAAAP

Consider `O=C(O)c1cn(C2CC2)c2cc(N3CCNCC3)c(F)cc2c1=O` [ciprofloxacin, reference compound], for which the “C. elegans antibiotic synergy, Mean Diff.” value in the data set with P. aeruginosa [1] (No antibiotic + 100 µM gallein vs Cipro (0.75 µg/mL) + 100 µM gallein) was -18.9; with P. aeruginosa [1] (No antibiotic DMSO vs Cipro (0.75 µg/mL) DMSO), 12.02.
Take `COc1ccc2c(c1OC)c(=O)oc1c(OC)c(O)ccc12` [RT1, 3-hydroxy-4,7,8-trimethoxy-6H-benzo[c]chromen-6-one]: the 50% inhibitory concentration (IC50) against P. aeruginosa PPK1 was 120 ± 10 µM; at P. aeruginosa PPK2A (setting [3]), above 500 µM; at P. aeruginosa PPK2A (setting [4]), above 500 µM; at P. aeruginosa PPK2B (Data Set S1, sheet Risen compounds, read-out: PA PPK2B IC50), above 500 µM; at P. aeruginosa PPK2B (setting [5]), above 500 µM; at P. aeruginosa PPK2C (setting [6]) it was above 500 µM. The half-maximal inhibitory concentration (IC50) at P. aeruginosa PPK2C (setting [7]) is above 500 µM. Besides, the “reduction of cell viability” value in the data set with HEK293T cells is listed as around 60%.
For `O=c1oc2c(O)c(O)c(O)c3c(=O)oc4c(O)c(O)cc1c4c23` [RT2, 1,2,3,7,8-pentahydroxychromeno[5,4,3-cde]chromene-5,10-dione], the IC50 at P. aeruginosa PPK1 is 20 ± 4 µM; at P. aeruginosa PPK2A (setting [3]), above 500 µM; on P. aeruginosa PPK2A (setting [4]), above 500 µM; at P. aeruginosa PPK2B (setting [5]), 59 ± 5 µM; on P. aeruginosa PPK2C (setting [6]), above 500 µM; on P. aeruginosa PPK2C (setting [7]) it was above 500 µM.
Take `O=c1oc2c(O)c(O)cc3c(=O)oc4c(O)c(O)cc1c4c23` [RT3 (ellagic acid), 2,3,7,8-tetrahydroxychromeno[5,4,3-cde]chromene-5,10-dione]: the IC50 is 20 ± 2 µM against P. aeruginosa PPK1; 50 ± 6 µM at P. aeruginosa PPK2A (setting [3]); 48 ± 2 µM at P. aeruginosa PPK2B (setting [5]); above 500 µM on P. aeruginosa PPK2C (setting [6]); above 500 µM at P. aeruginosa PPK2C (setting [7]).
On to `Nc1ncnc2c1ncn2[C@@H]1O[C@H](COP(=O)(O)OP(=O)(O)O)[C@@H](O)[C@H]1O` [ADP], for which, in the data set on E. coli PPK1, the Ki was 90 µM.
As to `CN(C)[C@@H]1C(O)=C(C(N)=O)C(=O)[C@@]2(O)C(O)=C3C(=O)c4c(O)cccc4[C@@](C)(O)[C@H]3C[C@@H]12` [tetracycline, reference compound], the “C. elegans antibiotic synergy, Mean Diff.” value in the data set with P. aeruginosa [1] (No antibiotic + 100 µM gallein vs Tet (10 µg/mL) + 100 µM gallein) is recorded as -22.79; in the data set on P. aeruginosa [1] (No antibiotic DMSO vs Tet (10 µg/mL) DMSO) it was 10.54. Further, the MIC with P. aeruginosa [2] is 16 µg/mL (≈ 36 µM).

The values above are taken from PMC8262977, “A Dual-Specificity Inhibitor Targets Polyphosphate Kinase 1 and 2 Enzymes To Attenuate Virulence of Pseudomonas aeruginosa” (mBio, 2021).
